Laboratory results reported in the NIST ThermoML archive (doi:10.1016/j.jct.2017.05.001).

Assay: wn = mass fraction of the nth substance listed
Settings: Liquid; for mass density: Vibrating tube method

OCCNCCO [diethanolamine] + O
mass density [kg/m3]
Settings | w1 = 0.0993 | w1 = 0.2 | w1 = 0.3002 | w1 = 0.3997
333.15 K, 130000 kPa | 1041.7 | 1050.9 | 1060.6 | 1070.8
333.15 K, 140000 kPa | 1045 | 1054.1 | 1063.7 | 1074
353.15 K, 100 kPa | 981.9 | 992.4 | 1003 | 1013.9
353.15 K, 500 kPa | 982 | 992.5 | 1003.1 | 1014
353.15 K, 1000 kPa | 982.2 | 992.7 | 1003.4 | 1014.2
353.15 K, 2000 kPa | 982.6 | 993.1 | 1003.7 | 1014.5
353.15 K, 5000 kPa | 983.9 | 994.4 | 1005 | 1015.8
353.15 K, 10000 kPa | 986.1 | 996.5 | 1007.1 | 1017.8
353.15 K, 15000 kPa | 988.2 | 998.6 | 1009.1 | 1019.8
353.15 K, 20000 kPa | 990.3 | 1000.6 | 1011.1 | 1021.8
353.15 K, 30000 kPa | 994.4 | 1004.7 | 1015.1 | 1025.7
353.15 K, 40000 kPa | 998.5 | 1008.5 | 1018.9 | 1029.4
353.15 K, 50000 kPa | 1002.4 | 1012.4 | 1022.6 | 1033
353.15 K, 60000 kPa | 1006.2 | 1016.3 | 1026.4 | 1036.7
353.15 K, 70000 kPa | 1010 | 1019.8 | 1029.9 | 1040.2
353.15 K, 80000 kPa | 1013.7 | 1023.4 | 1033.4 | 1043.6
353.15 K, 90000 kPa | 1017.3 | 1026.9 | 1036.8 | 1047
353.15 K, 100000 kPa | 1020.9 | 1030.4 | 1040.1 | 1050.4
353.15 K, 110000 kPa | 1024.4 | 1033.8 | 1043.5 | 1053.6
353.15 K, 120000 kPa | 1027.8 | 1037.1 | 1046.8 | 1056.8
353.15 K, 130000 kPa | 1031.1 | 1040.5 | 1050 | 1060
353.15 K, 140000 kPa | 1034.4 | 1043.6 | 1053.1 | 1063
373.15 K, 100 kPa | 968.1 | 978.3 | 988.7 | 999.2
373.15 K, 500 kPa | 968.3 | 978.6 | 988.9 | 999.4
373.15 K, 1000 kPa | 968.6 | 978.8 | 989.2 | 999.6
373.15 K, 2000 kPa | 969.1 | 979.3 | 989.6 | 1000.1
373.15 K, 5000 kPa | 970.4 | 980.6 | 990.9 | 1001.4
373.15 K, 10000 kPa | 972.7 | 982.8 | 993.2 | 1003.6
373.15 K, 15000 kPa | 974.9 | 985 | 995.3 | 1005.7
373.15 K, 20000 kPa | 977.1 | 987.2 | 997.4 | 1007.8
373.15 K, 30000 kPa | 981.4 | 991.5 | 1001.6 | 1012
373.15 K, 40000 kPa | 985.7 | 995.6 | 1005.7 | 1016
373.15 K, 50000 kPa | 989.7 | 999.5 | 1009.5 | 1019.8
373.15 K, 60000 kPa | 993.6 | 1003.5 | 1013.4 | 1023.6
373.15 K, 70000 kPa | 997.5 | 1007.3 | 1017.2 | 1027.3
373.15 K, 80000 kPa | 1001.4 | 1011.1 | 1020.9 | 1031
373.15 K, 90000 kPa | 1005.1 | 1014.7 | 1024.4 | 1034.5
373.15 K, 100000 kPa | 1008.8 | 1018.3 | 1028 | 1038
373.15 K, 110000 kPa | 1012.4 | 1021.9 | 1031.5 | 1041.4
373.15 K, 120000 kPa | 1015.9 | 1025.3 | 1034.9 | 1044.8
373.15 K, 130000 kPa | 1019.4 | 1028.7 | 1038.2 | 1048.1
373.15 K, 140000 kPa | 1022.7 | 1032 | 1041.5 | 1051.3
393.15 K, 100 kPa | 952.6 | 962.8 | 972.9 | 983.2
393.15 K, 500 kPa | 952.9 | 963.2 | 973.2 | 983.5
393.15 K, 1000 kPa | 953.1 | 963.3 | 973.4 | 983.7
393.15 K, 2000 kPa | 953.6 | 963.8 | 973.9 | 984.2
393.15 K, 5000 kPa | 955.1 | 965.2 | 975.3 | 985.6
393.15 K, 10000 kPa | 957.5 | 967.7 | 977.7 | 988
393.15 K, 15000 kPa | 959.9 | 969.9 | 980 | 990.3
393.15 K, 20000 kPa | 962.3 | 972.3 | 982.4 | 992.7
393.15 K, 30000 kPa | 966.8 | 976.8 | 986.9 | 997.1
393.15 K, 40000 kPa | 971.3 | 981.3 | 991.2 | 1001.4
393.15 K, 50000 kPa | 975.4 | 985.4 | 995.3 | 1005.4
393.15 K, 60000 kPa | 979.7 | 989.6 | 999.4 | 1009.6
393.15 K, 70000 kPa | 984 | 993.8 | 1003.6 | 1013.6
393.15 K, 80000 kPa | 987.9 | 997.6 | 1007.3 | 1017.3
393.15 K, 90000 kPa | 991.7 | 1001.5 | 1011.2 | 1021.2
393.15 K, 100000 kPa | 995.5 | 1005.2 | 1014.8 | 1024.8
393.15 K, 110000 kPa | 999.4 | 1008.9 | 1018.5 | 1028.5
393.15 K, 120000 kPa | 1003.1 | 1012.6 | 1022.1 | 1032
393.15 K, 130000 kPa | 1006.6 | 1016.1 | 1025.5 | 1035.4
393.15 K, 140000 kPa | 1010.1 | 1019.5 | 1029.1 | 1038.9

viscosity [mPa·s]
Settings | w1 = 0.0993 | w1 = 0.1 | w1 = 0.2 | w1 = 0.3 | w1 = 0.3002 | w1 = 0.3997 | w1 = 0.4
353.15 K, 100 kPa, Concentric cylinders viscometry | – | 0.474 | 0.627 | 0.866 | – | – | 1.244
353.15 K, 100 kPa, Falling or rolling sphere viscometry | 0.4595 | – | 0.6088 | – | 0.8528 | 1.226 | –
353.15 K, 5000 kPa, Falling or rolling sphere viscometry | 0.4583 | – | 0.6083 | – | 0.8459 | 1.231 | –
353.15 K, 10000 kPa, Falling or rolling sphere viscometry | 0.4614 | – | 0.6136 | – | 0.8544 | 1.239 | –
353.15 K, 15000 kPa, Falling or rolling sphere viscometry | 0.4631 | – | 0.6167 | – | 0.8578 | 1.247 | –
353.15 K, 20000 kPa, Falling or rolling sphere viscometry | 0.464 | – | 0.6198 | – | 0.8642 | 1.255 | –
353.15 K, 25000 kPa, Falling or rolling sphere viscometry | 0.4671 | – | 0.6239 | – | 0.8704 | 1.264 | –
353.15 K, 30000 kPa, Falling or rolling sphere viscometry | 0.4692 | – | 0.6271 | – | 0.8768 | 1.275 | –
353.15 K, 40000 kPa, Falling or rolling sphere viscometry | 0.4733 | – | 0.6333 | – | 0.8887 | 1.292 | –
353.15 K, 60000 kPa, Falling or rolling sphere viscometry | 0.4815 | – | 0.646 | – | 0.9096 | 1.335 | –
353.15 K, 80000 kPa, Falling or rolling sphere viscometry | 0.4886 | – | 0.6588 | – | 0.9309 | 1.371 | –
353.15 K, 100000 kPa, Falling or rolling sphere viscometry | 0.4971 | – | 0.6731 | – | 0.9514 | 1.409 | –
373.15 K, 5000 kPa, Falling or rolling sphere viscometry | 0.3586 | – | 0.4622 | – | 0.6145 | 0.8545 | –
373.15 K, 10000 kPa, Falling or rolling sphere viscometry | 0.3611 | – | 0.4646 | – | 0.6194 | 0.863 | –
373.15 K, 15000 kPa, Falling or rolling sphere viscometry | 0.3635 | – | 0.467 | – | 0.6247 | 0.8727 | –
373.15 K, 20000 kPa, Falling or rolling sphere viscometry | 0.3652 | – | 0.4698 | – | 0.6304 | 0.8808 | –
373.15 K, 25000 kPa, Falling or rolling sphere viscometry | 0.3672 | – | 0.4729 | – | 0.6353 | 0.889 | –
373.15 K, 30000 kPa, Falling or rolling sphere viscometry | 0.3689 | – | 0.4761 | – | 0.6417 | 0.9 | –
373.15 K, 40000 kPa, Falling or rolling sphere viscometry | 0.3724 | – | 0.482 | – | 0.6515 | 0.9123 | –
373.15 K, 60000 kPa, Falling or rolling sphere viscometry | 0.3807 | – | 0.492 | – | 0.6676 | 0.9445 | –
373.15 K, 80000 kPa, Falling or rolling sphere viscometry | 0.3871 | – | 0.5046 | – | 0.6851 | 0.9763 | –
373.15 K, 100000 kPa, Falling or rolling sphere viscometry | 0.3943 | – | 0.5153 | – | 0.7019 | 1.003 | –
393.15 K, 5000 kPa, Falling or rolling sphere viscometry | 0.2926 | – | 0.3644 | – | 0.4675 | 0.6194 | –
393.15 K, 10000 kPa, Falling or rolling sphere viscometry | 0.2943 | – | 0.3676 | – | 0.4721 | 0.6265 | –
393.15 K, 15000 kPa, Falling or rolling sphere viscometry | 0.2964 | – | 0.37 | – | 0.4778 | 0.6495 | –
393.15 K, 20000 kPa, Falling or rolling sphere viscometry | 0.2989 | – | 0.3724 | – | 0.4809 | 0.6555 | –
393.15 K, 25000 kPa, Falling or rolling sphere viscometry | 0.301 | – | 0.3748 | – | 0.4848 | 0.6626 | –
393.15 K, 30000 kPa, Falling or rolling sphere viscometry | 0.3024 | – | 0.3769 | – | 0.4908 | 0.6682 | –
393.15 K, 40000 kPa, Falling or rolling sphere viscometry | 0.3047 | – | 0.3818 | – | 0.4967 | 0.681 | –
393.15 K, 60000 kPa, Falling or rolling sphere viscometry | 0.3113 | – | 0.3919 | – | 0.5122 | 0.7072 | –
393.15 K, 80000 kPa, Falling or rolling sphere viscometry | 0.3178 | – | 0.4017 | – | 0.527 | 0.7305 | –
393.15 K, 100000 kPa, Falling or rolling sphere viscometry | 0.3233 | – | 0.4114 | – | 0.5417 | 0.7538 | –
